According to patent US7166299B2, “Preparation of aqueous clear solution dosage forms with bile acids” (priority 1998, dated 2007):
Where “and” joins values, the source holds several entries; their conditions need not be identical. Identical values can stand only once.

What was measured:
[1] = Solution stability test (HPLC) of mixed bile acids with maltodextrin in aqueous solution, Example II; type: physicochemical; details: Table 2: pH 1, 50° C.
Procedure: (§1) The stability of dosage formulations of the invention were evaluated by measuring the concentration of the relevant bile acid over time in preparations comprising soluble bile acid, a high molecular weight aqueous soluble starch conversion product, and water at various pH and temperature levels. The retention time of each bile acid may be adjusted as needed to permit individual analysis each bile acid present in a complex samples, i.e. a sample having a plurality of bile acids.
(§2) The stability tests were conducted on three different aqueous solution systems: […].
(§3) The stability tests were performed with HPLC and microscope light at various pH conditions under the normal and accelerated conditions. Accelerated conditions for testing pharmaceutical compositions have been described (Remington, The Science and Practice of Pharmacy, 19th ed., p. 640). […] Thus, the formulations of the examples are suitable for preparing a commercial liquid dosage form. […] Some formulations remain stable for over 2 years.
(§4) For the solution stability test for each bile acid, HPLC was used to measure the concentration of the relevant soluble bile acid under the following conditions: the elution solvent of 0.02 M KH2PO4:acetonitrile in a ratio of 55:45, with a pH of 3.01, the flow rate was 0.8 mL/min., the injection volume was 20 μL, wave length for detection was 195 nm. In the tables, the concentration of the indicated bile acid salt for each of the three numbered trials and the average thereof is reported on each line. The percentage indicates the relative concentration of the bile acid salt after incubation for a certain amount of time in comparison with the initial concentration.
Into the resulting clear solution, maltodextrin was added with agitating at room temperature. Purified water was added to adjust the total volume to be 100 mL.

[2] = cited from earlier work
[3] = Solution stability test (HPLC) of single bile acid with maltodextrin in aqueous solution, Example I; type: physicochemical
Procedure: as §1, §2, §3, §4
100 mL of the aqueous solution in which one of the above bile acids is dissolved was prepared. Into the resulting clear solution, maltodextrin, a high molecular weight aqueous soluble starch conversion product, was added with agitation at room temperature. Purified water was added to adjust the total volume to be 100 mL. According to the instant invention and all examples, purified water is deionized, distilled deionized-distilled water, or a grade commonly used for pharmaceutical preparations.

[4] = Table 1B: pH 10, 50° C., day 20

C[C@H](CCC(=O)O)[C@H]1CC[C@H]2[C@@H]3C(=O)C[C@@H]4C[C@H](O)CC[C@]4(C)[C@H]3CC[C@]12C [KLCA, 7-ketolithocholic acid]
Percentage of day 0 concentration ([1]; day 0): 100.0%
concentration by HPLC, Average ([1]; day 0): 0.876
concentration by HPLC, trials #1-#3 ([1]; day 0): 0.883 and 0.877 and 0.869
Percentage of day 0 concentration ([1]; day 4): 98.3%
concentration by HPLC, Average ([1]; day 4): 0.861
concentration by HPLC, trials #1-#3 ([1]; day 4): 0.870 and 0.866 and 0.847
Percentage of day 0 concentration ([1]; day 7): 96.4%
concentration by HPLC, Average ([1]; day 7): 0.845
concentration by HPLC, trials #1-#3 ([1]; day 7): 0.848 and 0.844 and 0.843
Percentage of day 0 concentration ([1]; day 20): 74.9%
concentration by HPLC, Average ([1]; day 20): 0.656
concentration by HPLC, trials #1-#3 ([1]; day 20): 0.661 and 0.651
solubility in the gastric juices and in aqueous hydrochloric acid solution [2]: especially insoluble
Percentage of day 0 concentration ([3]; Table 1A: pH 7, 50° C., day 0): 100.0%
concentration by HPLC, Average ([3]; Table 1A: pH 7, 50° C., day 0): 0.880
concentration by HPLC, trials #1-#3 ([3]; Table 1A: pH 7, 50° C., day 0): 0.888 and 0.879 and 0.874
Percentage of day 0 concentration ([3]; Table 1A: pH 7, 50° C., day 4): 100.2%
concentration by HPLC, Average ([3]; Table 1A: pH 7, 50° C., day 4): 0.882
concentration by HPLC, trials #1-#3 ([3]; Table 1A: pH 7, 50° C., day 4): 0.871 and 0.887 and 0.888
Percentage of day 0 concentration ([3]; Table 1A: pH 7, 50° C., day 7): 101.4%
concentration by HPLC, Average ([3]; Table 1A: pH 7, 50° C., day 7): 0.893
concentration by HPLC, trials #1-#3 ([3]; Table 1A: pH 7, 50° C., day 7): 0.897 and 0.893 and 0.888
Percentage of day 0 concentration ([3]; Table 1A: pH 7, 50° C., day 20): 102.1%
concentration by HPLC, Average ([3]; Table 1A: pH 7, 50° C., day 20): 0.899
concentration by HPLC, trials #1-#3 ([3]; Table 1A: pH 7, 50° C., day 20): 0.893 and 0.909 and 0.894
Percentage of day 0 concentration ([3]; Table 1B: pH 10, 50° C., day 0): 100.0%
concentration by HPLC, Average ([3]; Table 1B: pH 10, 50° C., day 0): 0.870
concentration by HPLC, trials #1-#3 ([3]; Table 1B: pH 10, 50° C., day 0): 0.879 and 0.874 and 0.857
Percentage of day 0 concentration ([3]; Table 1B: pH 10, 50° C., day 4): 100.5%
concentration by HPLC, Average ([3]; Table 1B: pH 10, 50° C., day 4): 0.874
concentration by HPLC, trials #1-#3 ([3]; Table 1B: pH 10, 50° C., day 4): 0.870 and 0.873 and 0.880
Percentage of day 0 concentration ([3]; Table 1B: pH 10, 50° C., day 7): 101.5%
concentration by HPLC, Average ([3]; Table 1B: pH 10, 50° C., day 7): 0.884
concentration by HPLC, trials #1-#3 ([3]; Table 1B: pH 10, 50° C., day 7): 0.893 and 0.876 and 0.882
Percentage of day 0 concentration [3, 4]: 102.2%
concentration by HPLC, Average [3, 4]: 0.889
concentration by HPLC, trials #1-#3 [3, 4]: 0.887 and 0.893
